The species entered for test [1] is Canis familiaris. The experiment in a line: In vitro effect on methemoglobin formation in blood of dog at 5 mM concentration. In kind it is functional, Canis lupus familiaris.
The species entered for test [2] is Canis familiaris. The experiment in a line: In vitro effect on methemoglobin formation in blood of dog at 1 mM concentration. In kind it is functional, Canis lupus familiaris.
Test [3] is filed under the species Canis familiaris. The experiment in a line: In vitro effect on methemoglobin formation in blood of dog at 1 mM concentration; Nil. In kind it is functional. The note with it: Canis lupus familiaris.
The species named for test [4] is Canis familiaris. As to the kind of experiment: In vitro effect on methemoglobin formation in blood of dog at 5 mM concentration; Nil. In kind it is functional. The settings on record: Canis lupus familiaris.

SMILES strings stand for the structures. Active and inactive are the calls of the source. No cut-off for these calls is given here.

Take `COc1cc(NC(C)CCCN)c2ncccc2c1` (stereo not drawn) [PRIMAQUINE]: the Methemoglobin in the test filed under Canis familiaris [1] was 87.6%; in the test listed under Canis familiaris [2] it was 11.52%.
In the case of `O=C(O)C(CCCNc1ccnc2cc(Cl)ccc12)Nc1ccnc2cc(Cl)ccc12` (stereo not drawn), the Methemoglobin in the test filed under Canis familiaris [1] is 6.89%; in the test listed under Canis familiaris [3] it was “Nil”.
For `N/C(=N\CCCC(Nc1ccnc2cc(Cl)ccc12)C(=O)O)Nc1ccnc2cc(Cl)ccc12` (stereo not drawn), in that order: 1.5% and “Nil”.
For `O=[N+]([O-])c1cc2c(NCCCCNc3ccnc4cc(Cl)c([N+](=O)[O-])cc34)ccnc2cc1Cl`, in that order: 6.42% and “Nil”.
Turning to `O=C(O)C(CCCCNc1ccnc2cc(Cl)ccc12)Nc1ccnc2cc(Cl)ccc12` (stereo not drawn), the Methemoglobin result in the test listed under Canis familiaris [4] and in the test listed under Canis familiaris [3] was “Nil” in each case.
`Clc1ccc2c(NCCN3CCN(c4ccnc5cc(Cl)ccc45)CC3)ccnc2c1`: the Methemoglobin result in the test listed under Canis familiaris [1] (Canis lupus familiaris) and in the test listed under Canis familiaris [3] was “Nil” throughout.
Consider `CCN(CC)CCCC(C)Nc1ccnc2cc(Cl)ccc12` (stereo not drawn), for which the Methemoglobin result in the test listed under Canis familiaris [4] and in the test filed under Canis familiaris [3] was “inactive” in each case.
Consider `Clc1ccc2c(NCCNCCCCNCCNc3ccnc4cc(Cl)ccc34)ccnc2c1`, for which the figures for the Methemoglobin in the test listed under Canis familiaris [1] and in the test filed under Canis familiaris [3] were 3% and “Nil”, respectively.
Consider `Clc1ccc2c(NCCCCNc3ccnc4cc(Cl)ccc34)ccnc2c1`, for which the Methemoglobin in the test filed under Canis familiaris [1] is 90.8%; in the test filed under Canis familiaris [2], 29.5%.

Values taken from ChEMBL document CHEMBL1131958, “Synthesis of bisquinolines and their in vitro ability to produce methemoglobin in canine hemolysate” (1999).
